Our source for the IC50 values is patent US20120022078A1, “ARYL INDOLE DERIVATIVES” (MSD K.K., priority 2010, published 2012).

The assay concerns the target T1, human QRFP receptor (GPR103) (Homo sapiens, UniProt Q96P65).
T1 construct: expressed in transfected cells; host or cells: NFAT β-Lactamase CHO-K1 host cells (Aurora); membrane specimen
T1 sequence (Q96P65 1-431): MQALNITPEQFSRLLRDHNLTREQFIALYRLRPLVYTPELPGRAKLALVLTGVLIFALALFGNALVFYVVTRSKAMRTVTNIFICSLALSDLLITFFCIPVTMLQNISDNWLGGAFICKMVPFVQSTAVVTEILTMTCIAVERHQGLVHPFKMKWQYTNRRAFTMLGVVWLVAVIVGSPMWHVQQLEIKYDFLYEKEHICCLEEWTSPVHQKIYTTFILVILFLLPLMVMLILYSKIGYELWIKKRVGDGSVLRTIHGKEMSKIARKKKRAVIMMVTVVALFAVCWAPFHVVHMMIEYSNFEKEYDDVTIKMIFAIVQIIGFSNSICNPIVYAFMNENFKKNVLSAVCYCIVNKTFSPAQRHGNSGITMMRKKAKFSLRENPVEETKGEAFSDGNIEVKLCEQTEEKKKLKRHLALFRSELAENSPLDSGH
Put plainly: QRFP43 binding inhibition test ([125I]QRFP43, membranes of GPR103-expressing CHO-K1 cells). As to conditions: membrane specimen from QRFP receptor (GPR103) expressing cells, 25° C., 1 hour, 20,000 cpm [125I]QRFP43; read-out: IC50 (50% inhibition concentration for the specific [125I] QRFP43 binding). The source says:
The cDNA sequence [Accession No. NM_198179] that codes for human QRFP receptor (GPR103) was cloned into an expression vector pEF1V5-HisB (Invitrogen). The expression vector so prepared was transfected into NFAT β-Lactamase CHO-K1 host cells (Aurora) to obtain QRFP receptor (GPR103) expressing cells, using the cationic lipid method [see Proceedings of the National Academy of Sciences of the United States of America, Vol. 84, p. 7413 (1987)].
The membrane specimen prepared from the QRFP receptor (GPR103) expressing cells was incubated at 25° C. for 1 hour with a test compound and 20,000 cpm [^125I ] QRFP43 (PerkinElmer, Inc.) in an assay buffer (50 mM Tris-HCl, 1 mM EDTA, and 0.1% BSA, pH 7.4), followed by filtration using a glass filter GF/C. After washing with a 50 mM Tris-HCl (containing 2 mM EDTA, 10 mM MgCl2, and 0.04% Tween-20) buffer at pH 7.4, the radioactivity on the glass filter was determined using a gamma counter. Non-specific binding was measured in the presence of 1 μM peptide QRFP43, and 50% inhibition concentration (IC50 value) of the test compound for the specific [^125I] QRFP43 binding was determined [see Endocrinology, Vol. 131, p. 2090 (1992)].
For `CN1CCN(Cc2cncc(-c3cc4ccccc4n3C)c2)CC1` [Example 5, 1-Methyl-2-{5-[(4-methylpiperazin-1-yl)methyl]pyridin-3-yl}-1H-indole], the IC50 is 111 nM.

In the case of `CN1CCN(Cc2cc(-c3cc4ccccc4n3C)ncc2F)CC1` [Example 2], the IC50 is 33.1 nM.

Regarding `CN1CCN(Cc2ccc(F)c(-c3cc4ccccc4n3C)c2)CC1` [Example 3, 2-{2-Fluoro-5-[(4-methylpiperazin-1-yl)methyl]phenyl}-1-methyl-1H-indole], the IC50 is 48.3 nM.

Turning to `CN1CCN(Cc2cnc(F)c(-c3cc4ccccc4n3C)c2)CC1` [Example 4], the IC50 was 52.5 nM.

Take `CN1CCN(Cc2cnc(-c3cc4ccccc4n3C)s2)CC1` [Example 1, 1-Methyl-2-{5-[(4-methylpiperazin-1-yl)methyl]-1,3-thiazol-2-yl}-1H-indole]: the IC50 came out at 49.8 nM.
